Molecular target: T1, CysLT1 (cysteinyl leukotriene type 1 receptor) (Homo sapiens, UniProt Q9Y271)
T1 construct: gene CYSLTR1
T1 sequence (Q9Y271 1-337): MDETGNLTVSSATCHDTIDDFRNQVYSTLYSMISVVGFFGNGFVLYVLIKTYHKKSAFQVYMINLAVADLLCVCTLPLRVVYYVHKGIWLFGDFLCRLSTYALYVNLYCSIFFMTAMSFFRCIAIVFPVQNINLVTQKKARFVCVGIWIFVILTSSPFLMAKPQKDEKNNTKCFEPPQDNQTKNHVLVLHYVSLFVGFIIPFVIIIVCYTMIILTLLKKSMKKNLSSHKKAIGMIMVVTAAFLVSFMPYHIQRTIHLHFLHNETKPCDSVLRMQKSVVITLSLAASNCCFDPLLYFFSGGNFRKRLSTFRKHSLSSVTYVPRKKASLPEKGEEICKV
Type: cell-based

**Q.** With CC(C)(O)c1ccccc1CC[C@@H](SCC1(CC(=O)O)CC1)c1cccc(/C=C/c2ccc3ccc(Cl)cc3n2)c1 [Montelukast] as the molecule, how does the “antagonism (100 nmol/L) of LTD4/LTE4-induced calcium mobilisation and CCL4 expre” value read?
**A.** Montelukast fully inhibiting LTE4 responses in LAD2 as well as LTD4 responses in LAD2 and LUVA cells

— article PMC4735867, “Leukotriene E4 is a full functional agonist for human cysteinyl leukotriene type 1 receptor-dependent gene expression” (Scientific Reports, 2016)
